# Laboratory results taken from article PMC6155021, “Ancient and modern anticonvulsants act synergistically in a KCNQ potassium channel binding pocket” (Nature Communications, 2018).
# Assays:
# KCNQ2 = KCNQ2 (Homo sapiens, UniProt O43526); assay: Two-electrode voltage-clamp of homomeric KCNQ2 in Xenopus oocytes; assay type: cell-based
# From the text: cRNA transcripts encoding human KCNA1, KCNQ1, KCNQ2, KCNQ3, KCNQ4, or KCNQ5 were generated by in vitro transcription using the T7 polymerase message machine kit (Thermo Fisher Scientific), after vector linearization, from cDNA sub-cloned into plasmids incorporating X. laevis β-globin 5′ and 3′ UTRs flanking the coding region to enhance translation and cRNA stability. cRNA was quantified by spectrophotometry. Mutant cDNAs were generated by site-directed mutagenesis using a QuikChange kit according to manufacturer’s protocol (Stratagene, San Diego, CA) and corresponding cRNAs prepared as above. Defolliculated stage V and VI X. laevis oocytes (Ecocyte Bioscience, Austin, TX) were injected with Kv channel α subunit cRNAs (10 ng total per oocyte). Oocytes were incubated at 16 °C in Barth’s saline solution (Ecocyte) containing penicillin and streptomycin, with daily washing, for 3–5 days prior to two-electrode voltage-clamp (TEVC) recording.
# Oocytes were placed in a small-volume oocyte bath (Warner) and viewed with a dissection microscope. Chemicals were sourced from Sigma. Bath solution was (in mM): 96 NaCl, 4 KCl, 1 MgCl2, 1 CaCl2, 10 HEPES (pH 7.6). […] MTX (DMSO), sorbic acid (ethanol), and glutaconic acid (molecular grade H2O) were stored at −20 °C as 1 M stocks. Oleamide was stored as a 1 mM stock in ethanol at 4 °C. Palmitic acid was conjugated with bovine serum albumin as a 1 mM stock and stored at −20 °C. All compounds were diluted to working concentrations each experimental day. All compounds were introduced to the recording bath via gravity perfusion at a constant flow of 1 ml/min for 3 min prior to recording. Pipettes were of 1–2 MΩ resistance when filled with 3 M KCl. Currents were recorded in response to pulses between −80 and +40 mV at 20 mV intervals, or a single pulse to +40 mV, from a holding potential of −80 mV, to yield current–voltage relationships, current magnitude, and for quantifying activation rate. TEVC data analysis was performed with Clampfit10.2 (Molecular Devices) and Graphpad Prism software (GraphPad, San Diego, CA, USA); values are stated as mean ± SEM. Normalized tail currents were plotted versus prepulse voltage and fitted with a single Boltzmann function:1 g=A1-A2/1+expV12-Vy+A2, where g is the normalized tail conductance, A1 is the initial value at −∞, A2 is the final value at +∞, V1/2 is the half-maximal voltage of activation, and Vs the slope factor. Activation and deactivation kinetics were fitted with single-exponential functions.
# [1] = tested on: pentylene tetrazole-induced seizures; assay: PTZ chemoconvulsant assay; assay type: in vivo, mouse; settings: mice
# From the text: We compared anticonvulsant activities of test compounds in male C57BL/6 mice (Charles River) aged 2–3 months. Mice were housed and used according to the recommendations in the Guide for the Care and Use of Laboratory Animals of the National Institutes of Health (NIH Publication, 8th edition, 2011). The study protocol was approved by the Institutional Animal Care and Use Committee of University of California, Irvine, which confirmed that all relevant ethical regulations were adhered to. Chemicals were sourced from Sigma (St. Louis, MO, USA) . A pentylene tetrazole (PTZ) chemoconvulsant assay was used[54]. […] Following the PTZ injection, mice were caged individually and an observer (GWA) blinded to the drug used recorded, over 20 min, clonic and tonic seizure incidence, and seizure-related mortality.
# All values are expressed as mean ± SEM. Chi-squared analysis was used to compare seizure-related mortality in mice. One-way ANOVA was applied for all other tests; if multiple comparisons were performed, a post-hoc Tukey’s HSD test was performed following ANOVA. All p-values were two-sided. Statistical significance was defined as p < 0.05.
# KCNQ2/3 channels = KCNQ2/3 channels (Homo sapiens, UniProt O43525+O43526); assay: Relative ion permeability of KCNQ2/3 channels (pseudo-bi-ionic substitution, GRb/GK); assay type: cell-based; settings: MTX 30 µM
# Experimental: For relative permeability studies, currents were recorded in response to a single pulse to +40 mV for 5 s, followed by pulses between −80 mV and +40 mV at 20 mV intervals, from a holding potential of −80 mV, to yield a current–voltage relationship. According to the Goldman–Hodgkin–Katz (GHK) voltage equation:2 Erev=RT∕FlnPKK^+O+PNaNaO+PClCli/PKK^+i+PNaNai+PClClo, where Erev is the absolute reversal potential and P is the permeability. This permits calculation of the relative permeability of each ion if concentrations on either side of the membrane are known. A modified version of this equation was used here to determine relative permeability of two ions in a system in which only the extracellular ion concentration was known. Thus, relative permeability of Rb^+, Cs^+, and Na^+ compared to K^+ ions was calculated for all channels by plotting the I/V relationships for each channel with each extracellular ion (100 mM) and comparing them to that with 100 mM extracellular K^+ ion to yield a change in reversal potential (ΔErev) for each ion compared to that of K^+. Permeability ratios for each ion compared to K^+ were then calculated as3 ΔErev=Erev,X-Erev,K=RT/zFlnPX/PK
# For calculating Rb^+/K^+ permeability (Fig. 3g), tail currents were elicited by a single pulse to +40 mV, followed by a pulse at −80 mV, from a holding potential of −80 mV in 98 mM [K^+] and then 98 mM [Rb^+]. […]
# KCNQ1 = KCNQ1 (Homo sapiens, UniProt P51787); parameters: method as in PMID 27997884; settings: cited from earlier work
# Chain of KCNQ1 (P51787 whole entry): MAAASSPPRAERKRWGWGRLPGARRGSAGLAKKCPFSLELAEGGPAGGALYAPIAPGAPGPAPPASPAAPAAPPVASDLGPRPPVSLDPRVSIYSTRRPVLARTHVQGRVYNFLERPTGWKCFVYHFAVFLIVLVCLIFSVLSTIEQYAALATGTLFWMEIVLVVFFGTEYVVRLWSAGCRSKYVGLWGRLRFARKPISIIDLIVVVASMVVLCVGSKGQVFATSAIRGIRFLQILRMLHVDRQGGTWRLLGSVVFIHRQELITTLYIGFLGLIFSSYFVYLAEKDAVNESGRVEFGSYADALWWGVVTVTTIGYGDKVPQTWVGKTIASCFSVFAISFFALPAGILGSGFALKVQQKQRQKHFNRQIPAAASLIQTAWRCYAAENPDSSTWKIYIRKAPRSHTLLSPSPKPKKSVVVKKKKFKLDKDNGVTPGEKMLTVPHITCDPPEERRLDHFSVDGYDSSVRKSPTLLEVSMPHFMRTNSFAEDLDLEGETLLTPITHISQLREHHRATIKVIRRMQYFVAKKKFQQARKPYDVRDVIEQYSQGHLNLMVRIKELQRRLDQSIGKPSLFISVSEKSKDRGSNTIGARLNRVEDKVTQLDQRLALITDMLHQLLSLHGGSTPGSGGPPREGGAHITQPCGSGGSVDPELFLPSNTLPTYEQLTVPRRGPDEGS
smiles,measurement,setting,value
"CC(=O)c1c(O)c(C)c(O)c(Cc2c(O)c3c(c(C(=O)/C=C/c4ccccc4)c2O)OC(C)(C)C=C3)c1O [MTX, mallotoxin]",EC50,KCNQ2,6.4 µM
same,Non-normalized tail current V0.5,"KCNQ2; KCNQ2, 0.1 µM",-50.0 ± 0.4 mV
same,Normalized tail current V0.5,"KCNQ2; KCNQ2, 0.1 µM",-50.0 ± 0.35 mV
same,Slope,"KCNQ2; KCNQ2, 0.1 µM",7.4 ± 0.23 mV
same,"τ act, -40 mV","KCNQ2; KCNQ2, 0.1 µM",538 ± 20 ms
same,"τ deact, -80 mV","KCNQ2; KCNQ2, 0.1 µM",294 ± 10 ms
same,Non-normalized tail current V0.5,"KCNQ2; KCNQ2, 1 µM",-51.7 ± 2.0 mV
same,Normalized tail current V0.5,"KCNQ2; KCNQ2, 1 µM",-51.4 ± 0.46 mV
same,Slope,"KCNQ2; KCNQ2, 1 µM",7.4 ± 0.31 mV
same,"τ act, -40 mV","KCNQ2; KCNQ2, 1 µM",490 ± 23 ms
same,"τ deact, -80 mV","KCNQ2; KCNQ2, 1 µM",271 ± 11 ms
same,Non-normalized tail current V0.5,"KCNQ2; KCNQ2, 3 µM",-52.1 ± 2.5 mV
same,Normalized tail current V0.5,"KCNQ2; KCNQ2, 3 µM",-54.9 ± 0.41 mV
same,Slope,"KCNQ2; KCNQ2, 3 µM",7.3 ± 0.33 mV
same,"τ act, -40 mV","KCNQ2; KCNQ2, 3 µM",417 ± 25 ms
same,"τ deact, -80 mV","KCNQ2; KCNQ2, 3 µM",237 ± 12 ms
same,Non-normalized tail current V0.5,"KCNQ2; KCNQ2, 10 µM",-61.7 ± 2.7 mV
same,Normalized tail current V0.5,"KCNQ2; KCNQ2, 10 µM",-61.2 ± 0.87 mV
same,Slope,"KCNQ2; KCNQ2, 10 µM",7.0 ± 1.0 mV
same,"τ act, -40 mV","KCNQ2; KCNQ2, 10 µM",341 ± 22 ms
same,"τ deact, -80 mV","KCNQ2; KCNQ2, 10 µM",199 ± 11 ms
same,Non-normalized tail current V0.5,"KCNQ2; KCNQ2, 30 µM",-68.7 ± 2.7 mV
same,Normalized tail current V0.5,"KCNQ2; KCNQ2, 30 µM",-68.5 ± 1.5 mV
same,Slope,"KCNQ2; KCNQ2, 30 µM",7.4 ± 0.6 mV
same,shift in midpoint voltage of activation,"KCNQ2; KCNQ2, 30 µM",−24 mV
same,"τ act, -40 mV","KCNQ2; KCNQ2, 30 µM",301 ± 19 ms
same,"τ deact, -80 mV","KCNQ2; KCNQ2, 30 µM",173 ± 10 ms
same,Non-normalized tail current V0.5,"KCNQ2; KCNQ2, 100 µM",-66.2 ± 2.7 mV
same,Normalized tail current V0.5,"KCNQ2; KCNQ2, 100 µM",-66.0 ± 2.7 mV
same,Slope,"KCNQ2; KCNQ2, 100 µM",8.1 ± 1.2 mV
same,"τ act, -40 mV","KCNQ2; KCNQ2, 100 µM",353 ± 22 ms
same,"τ deact, -80 mV","KCNQ2; KCNQ2, 100 µM",190 ± 8 ms
same,clonic seizure incidence,[1]; 10 mg/kg i.p. alone,neither compound reduced clonic seizures alone
same,clonic seizure incidence,"[1]; 20 mg/kg i.p., 30 min before 80 mg kg−1 PTZ",halved
same,suppression of PTZ-induced tonic seizures,[1]; individually,ineffective
same,GRb/GK (ratio of Rb+ conductance to K+ conductance),"KCNQ2/3 channels; KCNQ2/3, baseline 0.75 ± 0.10",0.52 ± 0.06
same,relative ion permeability of KCNQ2/3 compared to K+,KCNQ2/3 channels; 100 mM extracellular ion,"increased relative permeability of KCNQ2/3 to Na^+ and Cs^+, and decreased permeability to Rb^+"
same,effect on KCNQ1,KCNQ1,activated
